Measured values reported in publication PMC9426601 (mBio, 2022).
Where “and” joins values, the source holds several entries; their conditions need not be identical. Equal entries are not always repeated. Where two headings read alike, the source gives them in different places.

Key:
[1] = system: A(H3N2)-WT; assay: microbe, parasite or virus in culture; assay type: cell-based; conditions: Influenza A virus, H3N2, read-out: Baloxavir EC50 (nM) FRA
[2] = system: A(H1N1pdm09)-WT; assay: microbe, parasite or virus in culture; assay type: cell-based, influenza A(H1N1pdm09) virus; conditions: Influenza A virus, read-out: Baloxavir EC50 (nM) FRA
[3] = system: A(H3N2)-WT; assay: yield reduction assay (YRA) in MDCK-SIAT cells; assay type: cell-based, influenza A(H3N2) virus; conditions: A(H3N2) 100% WT, mean ± SD
Procedure: (§1) To perform the yield reduction assay, MDCK-SIAT cells were seeded into a 96-well plate as described above. Cell monolayers were washed with PBS and infected with 100 virus particles (calculated based on virus titer determined by TCID50) for 90 min. […] The plates were incubated for 24 h at 35°C, and the supernatant was collected and quantified to determine the infectious viral titer by using a TCID50 assay.

[4] = system: A(H1N1pdm09)-WT; assay: yield reduction assay (YRA) in MDCK-SIAT cells; assay type: cell-based, influenza A(H1N1pdm09) virus; conditions: A(H1N1pdm09) 100% WT, mean ± SD
Procedure: as §1

[5] = system: A(H3N2) 100% WT; set-up: species or system ferrets (Mustela putorius furo); conditions: in vivo
[6] = system: A(H1N1pdm09) 100% WT; set-up: species or system ferrets (Mustela putorius furo); AUC (area under the curve of nasal wash viral titer): unit not given beside the values; conditions: in vivo
[7] = biological target: NA activity of A(H3N2)-WT (Influenza A virus, UniProt P06818); assay type: biochemical
[8] = biological target: NA activity of A(H1N1pdm09)-WT (Influenza A virus, UniProt C7FH46); assay type: biochemical; conditions: read-out: IC50 (nM), neuraminidase inhibitor
[9] = Influenza A virus, read-out: Baloxavir EC50 (nM) YRA
[10] = read-out: Oseltamivir IC50 (nM) YRA

## O=C1c2c(O)c(=O)ccn2N([C@@H]2c3ccccc3SCc3c2ccc(F)c3F)[C@@H]2COCCN12 [Baloxavir, baloxavir acid]
[1]
  EC50: 0.6 ± 0.2 nM
[2]
  EC50: 1.2 ± 0.2 nM
[3]; [9]
  EC50: 0.4 ± 0.1 nM
[4]; [9]
  EC50: 0.3 ± 0.02 nM
[5]
  Duration of viral shedding: 4.3 days and 4.3 ± 0.9 days
  duration of viral shedding shorter than placebo: 1.7 days
  reduction in AUC relative to placebo: 28%
[6]
  Duration of viral shedding: 4 ± 0.8 days
  reduction in AUC relative to placebo: 29%
  reduction in mean viral titer 1 day following antiviral treatment: 1,000 fold
  reduction of duration of viral shedding vs placebo: 2.3 days

## CCC(CC)[C@H](NC(C)=O)[C@@H]1[C@H](O)[C@@H](C(=O)O)C[C@H]1N=C(N)N [Peramivir]
[7]; read-out: IC50 (nM), neuraminidase inhibitor
  IC50: 0.19 ± 0.01 nM
[8]
  IC50: 0.15 ± 0.03 nM

## CCOC(=O)C1=C[C@@H](OC(CC)CC)[C@H](NC(C)=O)[C@@H](N)C1 [Oseltamivir, oseltamivir]
[3]; [10]
  IC50: […]
[4]; [10]
  IC50: […]
[7]; read-out: Oseltamivir IC50 (nM) NIA
  IC50: […]
[5]
  Duration of viral shedding: […]
[6]
  reduction in mean viral titer 1 day following antiviral treatment: no reduction
